Source: ChEMBL document CHEMBL4387741, “Optimization of novel reversible Bruton's tyrosine kinase inhibitors identified using Tethering-fragment-based screens” (Bioorg Med Chem, 2019)

Experiments:
[1] = biological target: Tyrosine-protein kinase Fgr (Homo sapiens) (UniProt P09769); assay: Inhibition of wild-type human partial length FGR (L233 to T529 residues) expressed in bacterial expression system at 1 uM by Kinomescan method relative to control
[2] = biological target: Serine/threonine-protein kinase PLK2 (Homo sapiens) (UniProt Q9NYY3); assay: Inhibition of wild-type human partial length PLK2 (H58 to F354 residues) expressed in mammalian expression system at 1 uM by Kinomescan method relative to control
Sequence of Serine/threonine-protein kinase PLK2 (Homo sapiens) (Q9NYY3 whole entry, looked up, the tested form may be a part): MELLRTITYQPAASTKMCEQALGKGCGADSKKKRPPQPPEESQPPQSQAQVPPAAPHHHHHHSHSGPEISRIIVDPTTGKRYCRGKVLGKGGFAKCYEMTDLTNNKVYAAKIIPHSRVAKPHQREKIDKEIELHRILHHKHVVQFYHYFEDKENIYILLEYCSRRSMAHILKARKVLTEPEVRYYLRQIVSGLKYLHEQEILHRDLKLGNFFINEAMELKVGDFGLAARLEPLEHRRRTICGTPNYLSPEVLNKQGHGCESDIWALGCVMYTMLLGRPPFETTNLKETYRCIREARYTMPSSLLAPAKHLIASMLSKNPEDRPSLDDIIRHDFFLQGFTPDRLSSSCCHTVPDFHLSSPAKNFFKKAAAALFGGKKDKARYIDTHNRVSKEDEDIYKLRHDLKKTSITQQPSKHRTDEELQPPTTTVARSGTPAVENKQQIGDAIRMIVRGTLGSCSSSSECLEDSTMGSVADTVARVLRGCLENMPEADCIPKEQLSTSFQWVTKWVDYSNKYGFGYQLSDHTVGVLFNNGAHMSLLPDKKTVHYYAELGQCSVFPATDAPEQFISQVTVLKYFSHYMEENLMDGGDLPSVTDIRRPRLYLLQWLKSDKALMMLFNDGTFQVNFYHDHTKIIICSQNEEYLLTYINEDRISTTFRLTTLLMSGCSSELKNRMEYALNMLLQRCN

[3] = biological target: Serine/threonine-protein kinase RIO1 (Homo sapiens) (UniProt Q9BRS2); assay: Inhibition of wild-type human full length RIOK1 (M1 to K568 residues) expressed in bacterial expression system at 1 uM by Kinomescan method relative to control
[4] = biological target: Calcium/calmodulin-dependent protein kinase type 1B (Homo sapiens) (UniProt Q6P2M8); assay: Inhibition of wild-type human partial length CAMK1B (W9 to A311 residues) expressed in mammalian expression system at 1 uM by Kinomescan method relative to control
[5] = biological target: Ephrin type-B receptor 4 (Homo sapiens) (UniProt P54760); assay: Inhibition of wild-type human partial length EPHB4 (H585 to G892 residues) expressed in bacterial expression system at 1 uM by Kinomescan method relative to control
[6] = biological target: 5'-AMP-activated protein kinase catalytic subunit alpha-1 (Homo sapiens) (UniProt Q13131); assay: Inhibition of wild-type human partial length AMPK alpha1 (M1 to E306 residues) expressed in bacterial expression system at 1 uM by Kinomescan method relative to control
Sequence of 5'-AMP-activated protein kinase catalytic subunit alpha-1 (Homo sapiens) (Q13131 whole entry, looked up, the tested form may be a part): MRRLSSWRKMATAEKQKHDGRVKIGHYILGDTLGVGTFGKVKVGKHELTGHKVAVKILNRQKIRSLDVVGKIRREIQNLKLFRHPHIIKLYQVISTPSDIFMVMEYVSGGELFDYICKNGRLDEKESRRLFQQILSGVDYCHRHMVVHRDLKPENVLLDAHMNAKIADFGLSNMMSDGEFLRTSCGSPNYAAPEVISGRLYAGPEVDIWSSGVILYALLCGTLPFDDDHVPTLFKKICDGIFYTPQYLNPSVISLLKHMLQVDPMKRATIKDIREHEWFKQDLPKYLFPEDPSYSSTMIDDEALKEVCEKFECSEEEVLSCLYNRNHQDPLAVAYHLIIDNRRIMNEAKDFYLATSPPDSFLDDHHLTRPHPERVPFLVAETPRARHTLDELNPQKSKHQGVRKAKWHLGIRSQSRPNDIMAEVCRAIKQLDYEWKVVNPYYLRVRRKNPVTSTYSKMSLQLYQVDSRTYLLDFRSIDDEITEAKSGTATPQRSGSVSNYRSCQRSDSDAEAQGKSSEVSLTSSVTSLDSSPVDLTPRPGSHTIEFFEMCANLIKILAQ

[7] = biological target: 5'-AMP-activated protein kinase catalytic subunit alpha-2 (Homo sapiens) (UniProt P54646); assay: Inhibition of wild-type human partial length AMPK alpha2 (M1 to E306 residues) expressed in bacterial expression system at 1 uM by Kinomescan method relative to control
[8] = biological target: Calcium/calmodulin-dependent protein kinase type 1G (Homo sapiens) (UniProt Q96NX5); assay: Inhibition of wild-type human partial length CAMK1G (M1 to A342 residues) expressed in bacterial expression system at 1 uM by Kinomescan method relative to control
[9] = biological target: Serine/threonine-protein kinase PLK3 (Homo sapiens) (UniProt Q9H4B4); assay: Inhibition of wild-type human partial length PLK3 (A42 to L334 residues) expressed in mammalian expression system at 1 uM by Kinomescan method relative to control
Sequence of Serine/threonine-protein kinase PLK3 (Homo sapiens) (Q9H4B4 whole entry, looked up, the tested form may be a part): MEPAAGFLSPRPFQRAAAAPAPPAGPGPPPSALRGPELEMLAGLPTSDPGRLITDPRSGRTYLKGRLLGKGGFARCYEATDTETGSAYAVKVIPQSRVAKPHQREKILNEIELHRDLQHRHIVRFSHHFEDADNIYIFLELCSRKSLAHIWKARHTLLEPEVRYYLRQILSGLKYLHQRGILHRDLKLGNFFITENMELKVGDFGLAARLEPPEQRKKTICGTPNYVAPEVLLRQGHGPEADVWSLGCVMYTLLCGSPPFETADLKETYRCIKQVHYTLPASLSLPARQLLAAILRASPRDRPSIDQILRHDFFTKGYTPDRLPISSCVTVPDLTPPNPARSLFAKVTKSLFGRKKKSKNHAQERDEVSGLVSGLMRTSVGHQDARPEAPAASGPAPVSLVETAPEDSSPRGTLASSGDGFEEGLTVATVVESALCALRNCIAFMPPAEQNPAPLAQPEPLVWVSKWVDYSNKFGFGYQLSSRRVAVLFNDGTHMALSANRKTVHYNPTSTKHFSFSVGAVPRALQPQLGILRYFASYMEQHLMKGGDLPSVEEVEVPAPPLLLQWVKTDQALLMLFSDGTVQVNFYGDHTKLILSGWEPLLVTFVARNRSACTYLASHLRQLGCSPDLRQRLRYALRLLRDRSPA

[10] = biological target: Dual specificity tyrosine-phosphorylation-regulated kinase 1A (Homo sapiens) (UniProt Q13627); assay: Inhibition of wild-type human partial length DYRK1A (H129 to S509 residues) expressed in mammalian expression system at 1 uM by Kinomescan method relative to control
[11] = biological target: Dual specificity mitogen-activated protein kinase kinase 1 (Homo sapiens) (UniProt Q02750); assay: Inhibition of wild-type human full length MEK1 (M1 to V393 residues) expressed in mammalian expression system at 1 uM by Kinomescan method relative to control
Sequence of Dual specificity mitogen-activated protein kinase kinase 1 (Homo sapiens) (Q02750 whole entry, the tested form may be a part): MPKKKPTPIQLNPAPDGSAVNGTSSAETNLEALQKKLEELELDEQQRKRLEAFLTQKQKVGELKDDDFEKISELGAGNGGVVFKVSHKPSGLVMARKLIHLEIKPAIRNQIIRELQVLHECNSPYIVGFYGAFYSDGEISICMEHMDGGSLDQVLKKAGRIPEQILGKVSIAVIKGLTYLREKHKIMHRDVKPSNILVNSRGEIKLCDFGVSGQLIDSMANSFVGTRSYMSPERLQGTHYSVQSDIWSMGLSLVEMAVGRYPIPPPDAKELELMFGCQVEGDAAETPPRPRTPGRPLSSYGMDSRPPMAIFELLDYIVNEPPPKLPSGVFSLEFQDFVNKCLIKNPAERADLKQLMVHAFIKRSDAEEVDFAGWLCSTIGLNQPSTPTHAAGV

[12] = biological target: Fibroblast growth factor receptor 3 (Homo sapiens) (UniProt P22607); assay: Inhibition of wild-type human partial length FGFR3 (R442 to S771 residues) expressed in bacterial expression system at 1 uM by Kinomescan method relative to control
[13] = biological target: Testis-specific serine/threonine-protein kinase 3 (Homo sapiens) (UniProt Q96PN8); assay: Inhibition of wild-type human full length TSSK3 (M1 to T268 residues) expressed in mammalian expression system at 1 uM by Kinomescan method relative to control
Sequence of Testis-specific serine/threonine-protein kinase 3 (Homo sapiens) (Q96PN8 whole entry, the tested form may be a part): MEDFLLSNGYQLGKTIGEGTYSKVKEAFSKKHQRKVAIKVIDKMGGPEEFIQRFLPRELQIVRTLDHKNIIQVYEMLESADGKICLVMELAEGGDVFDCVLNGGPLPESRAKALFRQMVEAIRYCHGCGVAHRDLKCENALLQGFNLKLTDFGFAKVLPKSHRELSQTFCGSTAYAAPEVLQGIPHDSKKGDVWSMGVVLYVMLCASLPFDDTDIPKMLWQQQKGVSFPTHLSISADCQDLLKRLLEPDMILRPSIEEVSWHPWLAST

[14] = biological target: Inhibitor of nuclear factor kappa-B kinase subunit alpha (Homo sapiens) (UniProt O15111); assay: Inhibition of wild-type human full length IKK-alpha (M1 to E745 residues) expressed in mammalian expression system at 1 uM by Kinomescan method relative to control
Sequence of Inhibitor of nuclear factor kappa-B kinase subunit alpha (Homo sapiens) (O15111 whole entry, the tested form may be a part): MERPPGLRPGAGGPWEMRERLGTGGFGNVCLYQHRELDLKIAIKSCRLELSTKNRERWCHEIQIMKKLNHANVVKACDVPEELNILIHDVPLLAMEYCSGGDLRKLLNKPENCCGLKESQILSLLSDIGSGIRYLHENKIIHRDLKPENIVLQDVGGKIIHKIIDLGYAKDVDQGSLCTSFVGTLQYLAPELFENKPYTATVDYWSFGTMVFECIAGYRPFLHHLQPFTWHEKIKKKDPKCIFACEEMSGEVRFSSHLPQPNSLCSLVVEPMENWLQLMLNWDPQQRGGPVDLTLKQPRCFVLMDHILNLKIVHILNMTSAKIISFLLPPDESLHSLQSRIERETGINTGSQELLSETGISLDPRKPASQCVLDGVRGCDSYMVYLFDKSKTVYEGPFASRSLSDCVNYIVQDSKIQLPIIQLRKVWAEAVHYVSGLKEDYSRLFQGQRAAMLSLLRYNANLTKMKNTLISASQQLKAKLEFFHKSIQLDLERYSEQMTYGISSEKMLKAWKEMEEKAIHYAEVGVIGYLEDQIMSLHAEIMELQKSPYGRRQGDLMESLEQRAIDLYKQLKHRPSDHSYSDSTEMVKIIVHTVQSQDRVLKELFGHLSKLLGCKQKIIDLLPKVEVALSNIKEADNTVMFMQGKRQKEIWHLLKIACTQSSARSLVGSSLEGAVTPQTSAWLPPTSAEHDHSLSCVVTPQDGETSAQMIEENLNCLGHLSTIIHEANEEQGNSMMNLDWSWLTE

[15] = biological target: Ephrin type-A receptor 3 (Homo sapiens) (UniProt P29320); assay: Inhibition of wild-type human partial length EPHA3 (D604 to K889 residues) expressed in bacterial expression system at 1 uM by Kinomescan method relative to control
[16] = biological target: Bone morphogenetic protein receptor type-1B (Homo sapiens) (UniProt O00238); assay: Inhibition of wild-type human partial length BMPR1B (D178 to L502 residues) expressed in mammalian expression system at 10 uM by Kinomescan method relative to control
[17] = biological target: Serine/threonine-protein kinase B-raf (Homo sapiens) (UniProt P15056); assay: Inhibition of wild-type human partial length BRAF (S429 to E741 residues) expressed in mammalian expression system at 10 uM by Kinomescan method relative to control
[18] = biological target: Receptor-interacting serine/threonine-protein kinase 4 (Homo sapiens) (UniProt P57078); assay: Inhibition of wild-type human partial length RIPK4 (M1 to V303 residues) expressed in mammalian expression system at 10 uM by Kinomescan method relative to control
[19] = biological target: 5'-AMP-activated protein kinase catalytic subunit alpha-1 (Homo sapiens) (UniProt Q13131); assay: Inhibition of wild-type human partial length AMPK alpha1 (M1 to E306 residues) expressed in bacterial expression system at 10 uM by Kinomescan method relative to control
[20] = biological target: Mitogen-activated protein kinase kinase kinase 19 (Homo sapiens) (UniProt Q56UN5); assay: Inhibition of wild-type human partial length YSK4 (T1019 to H1328 residues) expressed in mammalian expression system at 10 uM by Kinomescan method relative to control
[21] = biological target: Cyclin-dependent kinase 11A (Homo sapiens) (UniProt Q9UQ88); assay: Inhibition of wild-type human partial length CDC2L2 (D391 to K730 residues) expressed in bacterial expression system at 10 uM by Kinomescan method relative to control
[22] = biological target: Macrophage colony-stimulating factor 1 receptor (Homo sapiens) (UniProt P07333); assay: Inhibition of wild-type human partial length autoinhibited CSF1R (Y538 to S939 residues) expressed in mammalian expression system at 10 uM by Kinomescan method relative to control
[23] = tested on: Tyrosine-protein kinase ABL1 (Homo sapiens), P00519 [Q252H]; assay: Inhibition of human non-phosphorylated ABL1 Q252H mutant (S229 to K512 residues) expressed in mammalian expression system at 10 uM by Kinomescan method relative to control
[24] = biological target: STE20/SPS1-related proline-alanine-rich protein kinase (Homo sapiens) (UniProt Q9UEW8); assay: Inhibition of wild-type human partial length STK39 (P43 to I357 residues) expressed in mammalian expression system at 10 uM by Kinomescan method relative to control
[25] = tested on: Epidermal growth factor receptor (Homo sapiens), P00533 [G719S]; assay: Inhibition of human partial length EGFR G719S mutant (R669 to V1011 residues) expressed in bacterial expression system at 10 uM by Kinomescan method relative to control
Sequence of Epidermal growth factor receptor (Homo sapiens), P00533 [G719S] (P00533 whole entry G719S, the tested form may be a part): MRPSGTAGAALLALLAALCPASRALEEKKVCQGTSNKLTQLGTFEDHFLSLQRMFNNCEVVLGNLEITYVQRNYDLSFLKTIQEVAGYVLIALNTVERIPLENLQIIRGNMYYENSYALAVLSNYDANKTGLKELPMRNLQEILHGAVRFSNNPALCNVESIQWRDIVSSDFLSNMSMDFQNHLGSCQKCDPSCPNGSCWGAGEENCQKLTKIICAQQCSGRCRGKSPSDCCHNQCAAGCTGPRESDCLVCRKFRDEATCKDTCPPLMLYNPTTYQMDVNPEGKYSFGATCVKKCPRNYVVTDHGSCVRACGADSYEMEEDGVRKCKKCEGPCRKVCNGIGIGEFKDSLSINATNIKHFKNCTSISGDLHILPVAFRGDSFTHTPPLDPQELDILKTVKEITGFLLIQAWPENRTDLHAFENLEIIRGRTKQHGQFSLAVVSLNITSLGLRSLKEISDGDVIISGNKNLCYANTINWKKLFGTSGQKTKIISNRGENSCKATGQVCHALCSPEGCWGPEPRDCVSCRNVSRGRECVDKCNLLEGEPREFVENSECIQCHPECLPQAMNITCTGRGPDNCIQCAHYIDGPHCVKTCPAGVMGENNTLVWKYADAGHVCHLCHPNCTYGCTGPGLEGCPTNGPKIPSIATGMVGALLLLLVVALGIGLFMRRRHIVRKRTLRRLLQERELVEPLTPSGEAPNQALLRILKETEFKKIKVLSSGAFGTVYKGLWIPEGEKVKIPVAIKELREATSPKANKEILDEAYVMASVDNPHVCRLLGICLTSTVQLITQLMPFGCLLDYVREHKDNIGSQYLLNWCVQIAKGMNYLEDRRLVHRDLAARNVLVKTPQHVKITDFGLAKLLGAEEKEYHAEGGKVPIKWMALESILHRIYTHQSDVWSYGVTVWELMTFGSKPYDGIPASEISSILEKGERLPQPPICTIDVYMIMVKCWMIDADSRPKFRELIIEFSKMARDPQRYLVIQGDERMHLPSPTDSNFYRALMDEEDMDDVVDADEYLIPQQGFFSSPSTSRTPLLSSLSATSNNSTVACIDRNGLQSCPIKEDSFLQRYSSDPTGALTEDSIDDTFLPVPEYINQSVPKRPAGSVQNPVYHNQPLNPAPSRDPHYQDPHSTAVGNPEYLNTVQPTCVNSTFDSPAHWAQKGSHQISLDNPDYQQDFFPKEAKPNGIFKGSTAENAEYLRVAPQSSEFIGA

[26] = biological target: Tyrosine-protein kinase BTK (Homo sapiens, UniProt Q06187); conditions: 10 uM
Description: Inhibition of wild-type human full length BTK (M1 to S659 residues) expressed in mammalian expression system at 10 uM by Kinomescan method relative to control

[27] = biological target: Atypical kinase COQ8B, mitochondrial (Homo sapiens) (UniProt Q96D53); assay: Inhibition of wild-type human full length ADCK4 (M1 to S544 residues) expressed in bacterial expression system at 10 uM by Kinomescan method relative to control

Sequence of Tyrosine-protein kinase Fgr (Homo sapiens) (P09769 2-529 limits assumed): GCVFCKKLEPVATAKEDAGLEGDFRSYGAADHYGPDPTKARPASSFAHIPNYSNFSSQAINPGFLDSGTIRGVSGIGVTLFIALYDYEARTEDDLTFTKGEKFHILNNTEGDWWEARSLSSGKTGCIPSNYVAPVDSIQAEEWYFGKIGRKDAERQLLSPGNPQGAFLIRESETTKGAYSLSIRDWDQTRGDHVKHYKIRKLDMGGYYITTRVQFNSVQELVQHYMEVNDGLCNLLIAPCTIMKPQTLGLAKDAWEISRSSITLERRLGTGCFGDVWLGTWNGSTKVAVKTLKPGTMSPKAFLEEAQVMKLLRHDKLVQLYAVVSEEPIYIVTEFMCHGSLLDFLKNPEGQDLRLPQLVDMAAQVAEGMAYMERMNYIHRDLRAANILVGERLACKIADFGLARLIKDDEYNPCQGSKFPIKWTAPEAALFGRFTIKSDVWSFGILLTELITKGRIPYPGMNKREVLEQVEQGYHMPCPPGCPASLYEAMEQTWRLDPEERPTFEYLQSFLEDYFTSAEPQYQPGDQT

SMILES: O=C(Nc1cccc([C@@H]2CN(c3ncnc4[nH]ccc34)CCN2CCO)c1)Nc1c(F)cccc1N1CCCC1
- inhibition [1]: 77%
- inhibition [2]: 87%
- inhibition [3]: 33%
- inhibition [4]: 98%
- inhibition [5]: 95%
- inhibition [6]: 61%
- inhibition [7]: 56%
- inhibition [8]: 100%
- inhibition [9]: 74%
- inhibition [10]: 87%
- inhibition [11]: 68%
- inhibition [12]: 83%
- inhibition [13]: 43%
- inhibition [14]: 78%
- inhibition [15]: 100%

SMILES: O=C(Nc1cccc([C@H]2CCCN(c3ncnc4[nH]ccc34)C2)c1)Nc1ccccc1N1CCCC1
- inhibition [16]: 46%
- inhibition [17]: 35%
- inhibition [18]: 71%
- inhibition [19]: 6.6%
- inhibition [20]: 2.3%
- inhibition [21]: 49%
- inhibition [22]: 64%
- inhibition [23]: 25%
- inhibition [24]: 75%
- inhibition [25]: 81%
- inhibition [26]: 0.6%
- inhibition [27]: 100%
